# According to BigSolDB 2.1:
smiles,measurement,setting,value
CCOc1ccccc1C(N)=O,solubility (mole fraction),"in 1,4-dioxane, 288.15 K",0.0116
same,solubility (mole fraction),"in 1,4-dioxane, 293.15 K",0.0144
same,solubility (mole fraction),"in 1,4-dioxane, 298.15 K",0.0175
same,solubility (mole fraction),"in 1,4-dioxane, 303.15 K",0.0221
same,solubility (mole fraction),"in 1,4-dioxane, 308.15 K",0.0272
same,solubility (mole fraction),"in 1,4-dioxane, 313.15 K",0.0341
same,solubility (mole fraction),"in 1,4-dioxane, 318.15 K",0.0427
same,solubility (mole fraction),"in 1,4-dioxane, 323.15 K",0.0527
same,solubility (mole fraction),"in 1,4-dioxane, 328.15 K",0.0653
same,solubility (mole fraction),"in 2-butanone, 288.15 K",0.0124
same,solubility (mole fraction),"in 2-butanone, 293.15 K",0.015
same,solubility (mole fraction),"in 2-butanone, 298.15 K",0.0179
same,solubility (mole fraction),"in 2-butanone, 303.15 K",0.0218
same,solubility (mole fraction),"in 2-butanone, 308.15 K",0.0268
same,solubility (mole fraction),"in 2-butanone, 313.15 K",0.0335
same,solubility (mole fraction),"in 2-butanone, 318.15 K",0.0413
same,solubility (mole fraction),"in 2-butanone, 323.15 K",0.0501
same,solubility (mole fraction),"in 2-butanone, 328.15 K",0.0609
same,solubility (mole fraction),"in DMF, 288.15 K",0.0485
same,solubility (mole fraction),"in DMF, 293.15 K",0.0566
same,solubility (mole fraction),"in DMF, 298.15 K",0.0653
same,solubility (mole fraction),"in DMF, 303.15 K",0.0754
same,solubility (mole fraction),"in DMF, 308.15 K",0.0875
same,solubility (mole fraction),"in DMF, 313.15 K",0.101
same,solubility (mole fraction),"in DMF, 318.15 K",0.117
same,solubility (mole fraction),"in DMF, 323.15 K",0.133
same,solubility (mole fraction),"in DMF, 328.15 K",0.151
same,solubility (mole fraction),"in acetone, 288.15 K",0.0124
same,solubility (mole fraction),"in acetone, 293.15 K",0.0153
same,solubility (mole fraction),"in acetone, 298.15 K",0.0184
same,solubility (mole fraction),"in acetone, 303.15 K",0.0226
same,solubility (mole fraction),"in acetone, 308.15 K",0.0277
same,solubility (mole fraction),"in acetone, 313.15 K",0.0344
same,solubility (mole fraction),"in acetone, 318.15 K",0.0424
same,solubility (mole fraction),"in acetone, 323.15 K",0.0507
same,solubility (mole fraction),"in acetone, 328.15 K",0.0611
same,solubility (mole fraction),"in ethyl formate, 288.15 K",0.00842
same,solubility (mole fraction),"in ethyl formate, 293.15 K",0.0103
same,solubility (mole fraction),"in ethyl formate, 298.15 K",0.0122
same,solubility (mole fraction),"in ethyl formate, 303.15 K",0.0151
same,solubility (mole fraction),"in ethyl formate, 308.15 K",0.0188
same,solubility (mole fraction),"in ethyl formate, 313.15 K",0.0238
same,solubility (mole fraction),"in ethyl formate, 318.15 K",0.0293
same,solubility (mole fraction),"in ethyl formate, 323.15 K",0.0354
same,solubility (mole fraction),"in ethyl formate, 328.15 K",0.0429
same,solubility (mole fraction),"in isopropanol, 288.15 K",0.00616
same,solubility (mole fraction),"in isopropanol, 293.15 K",0.00748
same,solubility (mole fraction),"in isopropanol, 298.15 K",0.00916
same,solubility (mole fraction),"in isopropanol, 303.15 K",0.0122
same,solubility (mole fraction),"in isopropanol, 308.15 K",0.0157
same,solubility (mole fraction),"in isopropanol, 313.15 K",0.0205
same,solubility (mole fraction),"in isopropanol, 318.15 K",0.0265
same,solubility (mole fraction),"in isopropanol, 323.15 K",0.0339
same,solubility (mole fraction),"in isopropanol, 328.15 K",0.0423
same,solubility (mole fraction),"in methyl acetate, 288.15 K",0.00747
same,solubility (mole fraction),"in methyl acetate, 293.15 K",0.00924
same,solubility (mole fraction),"in methyl acetate, 298.15 K",0.0114
same,solubility (mole fraction),"in methyl acetate, 303.15 K",0.0142
same,solubility (mole fraction),"in methyl acetate, 308.15 K",0.0182
same,solubility (mole fraction),"in methyl acetate, 313.15 K",0.023
same,solubility (mole fraction),"in methyl acetate, 318.15 K",0.0285
same,solubility (mole fraction),"in methyl acetate, 323.15 K",0.0349
same,solubility (mole fraction),"in methyl acetate, 328.15 K",0.0428
same,solubility (mole fraction),"in n-butanol, 288.15 K",0.00781
same,solubility (mole fraction),"in n-butanol, 293.15 K",0.00989
same,solubility (mole fraction),"in n-butanol, 298.15 K",0.0122
same,solubility (mole fraction),"in n-butanol, 303.15 K",0.0158
same,solubility (mole fraction),"in n-butanol, 308.15 K",0.0199
same,solubility (mole fraction),"in n-butanol, 313.15 K",0.0251
same,solubility (mole fraction),"in n-butanol, 318.15 K",0.0322
same,solubility (mole fraction),"in n-butanol, 323.15 K",0.0402
same,solubility (mole fraction),"in n-butanol, 328.15 K",0.0498
same,solubility (mole fraction),"in n-butyl acetate, 288.15 K",0.00505
same,solubility (mole fraction),"in n-butyl acetate, 293.15 K",0.00603
same,solubility (mole fraction),"in n-butyl acetate, 298.15 K",0.00705
same,solubility (mole fraction),"in n-butyl acetate, 303.15 K",0.0089
same,solubility (mole fraction),"in n-butyl acetate, 308.15 K",0.011
same,solubility (mole fraction),"in n-butyl acetate, 313.15 K",0.0134
same,solubility (mole fraction),"in n-butyl acetate, 318.15 K",0.0165
same,solubility (mole fraction),"in n-butyl acetate, 323.15 K",0.0201
same,solubility (mole fraction),"in n-butyl acetate, 328.15 K",0.0245
same,solubility (mole fraction),"in n-pentanol, 288.15 K",0.00858
same,solubility (mole fraction),"in n-pentanol, 293.15 K",0.0106
same,solubility (mole fraction),"in n-pentanol, 298.15 K",0.0131
same,solubility (mole fraction),"in n-pentanol, 303.15 K",0.0165
same,solubility (mole fraction),"in n-pentanol, 308.15 K",0.0207
same,solubility (mole fraction),"in n-pentanol, 313.15 K",0.026
same,solubility (mole fraction),"in n-pentanol, 318.15 K",0.0329
same,solubility (mole fraction),"in n-pentanol, 323.15 K",0.0406
same,solubility (mole fraction),"in n-pentanol, 328.15 K",0.0504
same,solubility (mole fraction),"in n-propyl acetate, 288.15 K",0.00566
same,solubility (mole fraction),"in n-propyl acetate, 293.15 K",0.0069
same,solubility (mole fraction),"in n-propyl acetate, 298.15 K",0.0082
same,solubility (mole fraction),"in n-propyl acetate, 303.15 K",0.0101
same,solubility (mole fraction),"in n-propyl acetate, 308.15 K",0.0122
same,solubility (mole fraction),"in n-propyl acetate, 313.15 K",0.015
same,solubility (mole fraction),"in n-propyl acetate, 318.15 K",0.0185
same,solubility (mole fraction),"in n-propyl acetate, 323.15 K",0.0227
same,solubility (mole fraction),"in n-propyl acetate, 328.15 K",0.0271
same,solubility (mole fraction),"in sec-butanol, 288.15 K",0.00735
same,solubility (mole fraction),"in sec-butanol, 293.15 K",0.00924
same,solubility (mole fraction),"in sec-butanol, 298.15 K",0.0117
same,solubility (mole fraction),"in sec-butanol, 303.15 K",0.0153
same,solubility (mole fraction),"in sec-butanol, 308.15 K",0.0198
same,solubility (mole fraction),"in sec-butanol, 313.15 K",0.0256
same,solubility (mole fraction),"in sec-butanol, 318.15 K",0.0326
same,solubility (mole fraction),"in sec-butanol, 323.15 K",0.0411
same,solubility (mole fraction),"in sec-butanol, 328.15 K",0.0518
